Legend:
human 5-HT5A receptor = human 5-HT5A receptor (Homo sapiens (Human), UniProt P47898); experiment: Human 5-HT5A receptor binding inhibition test ([3H]5-CT); conditions: [3H]5-CT binding, membranes of HEK293 cells expressing human 5-HT5A receptor; Ki calculated from IC50, Kd 4.95 nM
Method: An open reading frame (ORF; protein coding region) of human 5-HT5A receptor (Genbank AF498985) was cloned from a human hippocampus cDNA library and then inserted into a pCR2.1 vector (Invitrogen), and E. coli carrying the plasmid was cultured in a large scale. Thereafter, a full-length cDNA sequence of the human 5-HT5A receptor was analyzed and recombined into pcDNA3.1 vector (Invitrogen) as an expression vector, followed by a large scale culturing. The HEK293 cells (ATCC) as a human embryonic kidney-derived cell line were seeded, and the expression plasmid (1 μg) obtained as above was added thereto together with LIPOFECTAMINE 2000 (Invitrogen; 2 μl) to introduce genes into the HEK293 cells. Subsequently, expression cells were screened using Geneticin (G418 sulfate 500 μg/ml; KANTO KAGAKU) as a drug resistance marker. The recombinant cells expressing the genes prepared in this manner were cultured for 3 days in Dulbecco's Modified Eagle Medium (D-MEM, Sigma) supplemented with 10% fetal calf serum (FCS), 1% penicillin/streptomycin (Pc./Sm, Invitrogen), and 500 μg/ml G418. The above experimental procedure was performed according to a genetic engineering experiment manual of a known method (Sambrook, J. et al, “Molecular Cloning-A Laboratory manual”, Cold Spring Harbor Laboratory, NY, 1989) or the like, or the instruction attached to the reagents.
The HEK293 cells forced to express the human 5-HT5A receptor were cultured in a F500 plate and collected by being scarped with a scraper. After centrifugation, the sediment was collected, and an incubation buffer (50 mM Tris(HCl), pH 7.4, 10 mM MgSO4, 0.5 mM ethylenediaminetetraacetic acid (EDTA)) was added thereto. After homogenization, centrifugation was performed again, and the sediment was thoroughly suspended in the incubation buffer added thereto. After this procedure was repeated, the protein concentration was measured, thereby completing membrane preparation.
A test compound and 150 μM of a DMSO solution of 5-carboxamide tryptamine (5-CT) were added to a 96-well plate at 2 μl/well and suspended in the incubation buffer, and the HEK293 cells forced to express the human 5-HT5A receptor that were prepared at a concentration of 200 μg/ml were added thereto at 100 μl/well. The cells were incubated for 15 minutes at room temperature, and then a [^3H]5-CT solution (3 nM [^3H]5-CT, incubation buffer) was added thereto at 100 μl/well.
100 μl of the cell solution was separately dispensed into a liquid scintillation vial, and 2 ml of Aquasol II (registered trademark) was added thereto, followed by stirring. Thereafter, the radioactivity thereof was measured using a liquid scintillation counter. The cells were incubated for 60 minutes at 37° C. The reaction mixture was aspirated into a 96-well GF/C filter plate having undergone pretreatment with 0.2% polyethyleneimine, and washed 6 times with an ice-cold 50 mM Tris (pH 7.4) buffer. Thereafter, the GF/C filter plate was dried.
MicroScint™-PS (registered trademark) was added to the plate at 40 μl/well, and the radioactivity remaining on the GF/C filter plate was measured using TopCount.
In each test example, regarding the [^3H]5-CT binding inhibitory activity resulting from the test compound, the radioactivity at the time when only DMSO was added was regarded as 0%, and the radioactivity at the time when 1.5 μM 5-CT was added was regarded as 100% inhibition, thereby calculating an IC50 value. In addition, from a Kd value of [^3H]5-CT obtained from Scatchard analysis, a Ki value was calculated by the following formula. Ki=IC50/(1+concentration of ligand added/Kd(4.95 nM))

male ICR mouse [1] = experiment: MK-801-induced increase in level of physical activity (hyperactivity) of mouse; format: in vivo; conditions: MK-801 0.3 mg/kg, significance P<0.05 vs vehicle
Method: (§1) The improvement effect of the compound of formula (I) on schizophrenia was evaluated by the measurement of the level of physical activity reduced by the administration of the compound, in a model having symptoms induced by methamphetamine (hereinafter, abbreviated to MAP) and MK-801.
(§2) The animals were taken out of a breeding cage, and the test compound was orally administered to the animal. Thereafter, the animals were put in the breeding cage. 30 minutes later, the animals were put in a cage for measurement, and the level of physical activity of the animals administered only with the test compound was measured. Another 30 to 90 minutes later, the animals were taken out, and drugs (MAP; 1.5 mg/kg or MK-801; 0.3 mg/kg dissolved in physiological saline) increasing the level of physical activity were respectively administered to the animals subcutaneously or intraperitoneally. The level of physical activity for a certain period of time (60 minutes) was measured using an instrument measuring a level of physical activity (CompACT AMS, MUROMACHI KIKAI CO., LTD.) by an infrared sensor.
For the normal mouse (mouse administered with physiological saline) and the mouse administered with the medication increasing the level of physical activity, Student's T test was performed in the respective intervals to judge the effect. For the group administered with the test compound, Dunnett's T test was performed for the comparison with a vehicle group, whereby the effect of the compound was tested. When there was a significant difference (P<0.05), the compound was judged to be effective.

male ddy mouse = experiment: Scopolamine-induced spontaneous alternation behavior in mouse (Y-maze); format: in vivo; conditions: scopolamine 0.5 mg/kg i.p., alternation rate, p<0.05 vs control
Method: The improvement effect of the compound of formula (I) on dementia and the cognitive disease of schizophrenia was evaluated by the known test method described above by using a short-term learning disability model.
10 to 30 minutes after the test compound was orally administered, scopolamine at 0.5 mg/kg or MK-801 (physiological saline for a normal group) at 0.15 mg/kg was intraperitoneally administered, and the test was performed 20 minutes after the administration. In addition, for a normal group (group administered with physiological saline) and a control group (group administered with scopolamine at 0.5 mg/kg or MK-801 at 0.15 mg/kg), a vehicle was orally administered when the test compound was administered.
The mouse was put into one end of an arm of a maze (Y-maze) having arms of the same length that extended in three directions. The mouse was allowed to freely explore for 8 minutes, and the number of entries into the arm for the 8 minutes was counted. Moreover, a case where the mouse consecutively entered three different arms was regarded as spontaneous alternation behavior, and a ratio of the number of times of such a behavior to the total entry number was regarded as alternation rate and calculated by the following formula. Alternation rate(%)=number of times of spontaneous alternation behavior/(total entry number−2)×100
When a significant difference (Student's T test) was observed between the normal group and the control group in the alternation rate (%), the learning disability was considered to be induced by the administration of scopolamine or MK-801. By performing Dunnette's test for comparing the test compound-administered groups with the control group, whether or not the test compound has an action […] was determined. In each test, p<0.10 was regarded as a trend, and p<0.05 was regarded as a significant difference.

male ICR mouse [2] = experiment: Methamphetamine (MAP)-induced increase in level of physical activity (hyperactivity) of mouse; format: in vivo; conditions: oral dose 0.03 mg/kg; MAP 1.5 mg/kg; significance P<0.05 vs vehicle
Method: as §1, §2
For the normal mouse (mouse administered with physiological saline) and the mouse administered with the medication increasing the level of physical activity, Student's T test was performed in the respective intervals to judge the effect. […]

BALB/3T3 = experiment: Test for evaluating phototoxic effect (neutral red incorporation, UV irradiation); format: cell-based; conditions: BALB/3T3, UV 70 minutes 1200 μW/cm2 vs non-irradiated
Method: 1) BALB/3T3 is peeled from a culture flask, and the cell number is counted.
2) The cell concentration is adjusted to 0.7×10^5 cells/ml, and the cells are seeded into a 96-well plate at 100 μl/well. PBS is added in an amount of 100 μl to a line of wells in both ends where the cells are not seeded.
3) The cells are cultured in a CO2 incubator for 1 day.
4) DMSO is added to a test compound, and the EBSS is further added thereto and dissolved. Ultrasonic waves, heating.
5) The compound solution of the highest concentration is transferred to the adjacent tube by 300 μL. This operation is repeated to prepare solutions having serial dilution concentration.
10) For each compound, compound solutions of 8-serial dilutions are dispensed at 100 μL/well.
11) The plates are allowed to stand still in a dark place (in a drawer of a lab bench) for 60 minutes.
12) Thereafter, the plates are irradiated with UV for 70 minutes (1200 μW/cm^2). The plate not irradiated is put in an empty box.
1) Neutral red (NR) is prepared in an amount of 50 μg/ml
3) The NR solution is dispensed at 100 μL/well.
4) Culturing is performed for 3 hours in a CO2 incubator.
8) The NR eluent is dispensed at 150 μl/well.
10) An absorbance at 540 nm is measured using a microplate reader.
According to the above test example 8, several compounds of formula (I) were evaluated. […] Herein, MPE refers to a value showing Mean Photo Effect. MPE can be calculated according to Equation 2 of the following document, for example.

Sequence of human 5-HT5A receptor (P47898 whole entry): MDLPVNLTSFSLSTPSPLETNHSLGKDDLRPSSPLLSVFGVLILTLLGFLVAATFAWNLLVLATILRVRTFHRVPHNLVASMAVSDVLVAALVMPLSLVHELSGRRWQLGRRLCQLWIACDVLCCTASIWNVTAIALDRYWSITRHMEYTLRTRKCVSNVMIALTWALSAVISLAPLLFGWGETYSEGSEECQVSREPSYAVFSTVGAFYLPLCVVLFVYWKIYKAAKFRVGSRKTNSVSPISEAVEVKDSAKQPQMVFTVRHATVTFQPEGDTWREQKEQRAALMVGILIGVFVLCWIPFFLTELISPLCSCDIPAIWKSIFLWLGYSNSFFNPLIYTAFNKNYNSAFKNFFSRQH

SMILES	Ki (human 5-HT5A receptor) [nM]	further results
NC(N)=NC(=O)N1Cc2c(-c3ccccc3F)ccc(F)c2C2(CC2)C1 [Ex 86]	0.95	–
NC(N)=NC(=O)N1Cc2c(-c3ccc(F)cc3F)ccc(F)c2C2(CC2)C1 [Ex 80]	0.85	–
NC(N)=NC(=O)N1Cc2c(C3CC3)ccc(F)c2C2(CC2)C1 [Ex 76]	2.7	hyperactivity induced by MK-801 (male ICR mouse [1]; oral dose 0.1 mg/kg): significantly suppressed
NC(N)=NC(=O)N1Cc2c(-c3c(F)cccc3F)ccc(F)c2C2(CC2)C1 [Ex 66]	0.75	–
NC(N)=NC(=O)N1CCc2c(F)ccc(-c3ncc(Cl)cc3F)c2C1 [Ex 4, 8-(5-chloro-3-fluoropyridin-2-yl)-N-(diaminomethylene)-5-fluoro-3,4-dihydroisoquinoline-2(1H)-carboxamide]	4.3	–
NC(N)=NC(=O)N1CCc2c(F)ccc(-c3ncc(Cl)cc3Cl)c2C1 [Ex 62]	1.9	scopolamine-induced spontaneous alternation behavior (male ddy mouse; oral dose 0.003 mg/kg): significantly inhibited; hyperactivity induced by MK-801 (male ICR mouse [1]; oral dose 0.01 mg/kg): significantly suppressed
NC(N)=NC(=O)N1CCc2c(Cl)ccc(-c3c(F)cncc3F)c2C1 [Ex 61]	2.5	–
NC(N)=NC(=O)N1Cc2c(-c3ccc(F)cc3F)ccc(Cl)c2C(F)C1 (stereo not drawn) [Ex 49]	6.6	–
NC(N)=NC(=O)N1CCc2c(F)ccc(-c3c(F)cc(F)cc3F)c2C1 [Ex 26]	0.68	scopolamine-induced spontaneous alternation behavior (male ddy mouse; oral dose 0.03 mg/kg): significantly inhibited; hyperactivity induced by MAP (male ICR mouse [2]): significantly inhibited; MPE (Mean Photo Effect) (BALB/3T3): 0.00; hyperactivity induced by MK-801 (male ICR mouse [1]; oral dose 0.03 mg/kg): significantly suppressed
NC(N)=NC(=O)N1CCc2cccc(-c3ncc(F)cc3F)c2C1 [Ex 81]	4.2	–
NC(N)=NC(=O)N1CCc2cccc(-c3cc(F)c(F)cc3F)c2C1 [Ex 8]	3.6	–
NC(N)=NC(=O)N1CCc2c(Cl)ccc(-c3c(F)cc(F)cc3F)c2C1 [Ex 23]	1.1	scopolamine-induced spontaneous alternation behavior (male ddy mouse; oral dose 0.003 mg/kg): significantly inhibited; MPE (Mean Photo Effect) (BALB/3T3): 0.00; hyperactivity induced by MK-801 (male ICR mouse [1]; oral dose 0.03 mg/kg): significantly suppressed
Cl.NC(N)=NC(=O)N1CCc2c(F)ccc(-c3ncc(F)cc3F)c2C1 [Ex 46]	6.9	scopolamine-induced spontaneous alternation behavior (male ddy mouse; oral dose 0.003 mg/kg): significantly inhibited; hyperactivity induced by MK-801 (male ICR mouse [1]; oral dose 0.03 mg/kg): significantly suppressed
NC(N)=NC(=O)N1Cc2c(-c3c(F)cc(F)cc3F)ccc(F)c2C2(CC2)C1 [Ex 74]	0.88	–

The remaining compounds from weak to strong by Ki (human 5-HT5A receptor), led by results:

Ki (human 5-HT5A receptor) [nM]	SMILES	further results
3.9	Cc1ccc(-c2ncc(F)cc2F)c2c1CCN(C(=O)N=C(N)N)C2 [Ex 60]	hyperactivity induced by MK-801 (male ICR mouse [1]; oral dose 0.03 mg/kg): significantly suppressed
3.7	NC(N)=NC(=O)N1CCc2c(F)ccc(-c3cc(F)c(F)cc3F)c2C1 [Ex 79]	–
2.7	NC(N)=NC(=O)N1CCc2c(Cl)ccc(-c3ccc(F)cc3F)c2C1 [Ex 44]	–
1.6	CC1CN(C(=O)N=C(N)N)Cc2c(-c3c(F)cccc3F)ccc(F)c21 (stereo not drawn) [Ex 69]	–
1.3	NC(N)=NC(=O)N1Cc2c(-c3cc(F)c(F)cc3F)ccc(F)c2C2(CC2)C1 [Ex 78]	scopolamine-induced spontaneous alternation behavior (male ddy mouse; oral dose 0.03 mg/kg): significantly inhibited; hyperactivity induced by MK-801 (male ICR mouse [1]; oral dose 0.1 mg/kg): significantly suppressed
1.1	NC(N)=NC(=O)N1CCc2c(F)ccc(-c3c(F)cccc3F)c2C1 [Ex 28]	scopolamine-induced spontaneous alternation behavior (male ddy mouse; oral dose 0.003 mg/kg): significantly inhibited; hyperactivity induced by MAP (male ICR mouse [2]): significantly inhibited; MPE (Mean Photo Effect) (BALB/3T3): 0.00; hyperactivity induced by MK-801 (male ICR mouse [1]; oral dose 0.03 mg/kg): significantly suppressed

From patent US8962612B2, “Tetrahydroisoquinoline derivative” (Astellas Pharma Inc, priority 2011, dated 2015)
